Data taken from US20140187771A1, “AMORPHOUS SOLID SALTS” (Gilead Sciences, Inc., priority 2011, published 2014).

Legend:
[1] = Hygroscopicity at room temperature (weight gain and visual phase transition after 24 hours at controlled RH); type: physicochemical
Protocol: Hygroscopicity of salts of invention were measured by placing 20-50 mg of the sample in an uncapped scintillation vial. The vial was stored at ambient temperature in a Pyrex brand desiccator (VWR, International, CT). […] The relative humidity was confirmed using a digital hygrometer pen (VWR International, CT). An empty scintillation vial was also placed in the desiccator as a control. […] Visual observation of phase transition was also noted.

[2] = Glass transition temperature (Tg) by modulated differential scanning calorimetry (mDSC); type: physicochemical; settings: for Tg (° C.) First heating / Tg (° C.) Second heating: mDSC, precipitated salts of Compound 1; for Tg (° C.) First heating: first heating cycle; for Tg (° C.) Second heating: second heating cycle (intrinsic Tg in dry state); for Tg (° C.): spray dried salts (from acetone)
Protocol: Modulated differential scanning calorimetry (mDSC) was used to characterize salts of the invention. Solid samples were placed in hermetically sealed aluminum pan with a pinhole. Modulation amplitude of ±0.8° C. with a period of 60 sec was applied to the sample heated at 2° C./min under dried nitrogen purge using TA instruments (New Castle, Del., USA) model 1000.
Heat-cool-heat cycles were applied to allow for moisture evaporation during first heating cycle and to erase thermal history of the sample, which allowed for the determination of the intrinsic glass transition temperature (Tg) in dry state.

[3] = 55% RH, room temperature, 24 hours
[4] = 55% RH, room temperature, 24 hours, visual observation
[5] = 75% RH, room temperature, 24 hours
[6] = 75% RH, room temperature, 24 hours, visual observation

| Compound | % weight gain [1, 3] [%] | Phase transition [1, 4] | % weight gain [1, 5] [%] | Phase transition [1, 6] | Phase transition ([1]; spray dried salts, 55% RH) | Phase transition ([1]; spray dried salts, 75% RH) | Weight gain at 75% (%) ([1]; spray dried salts, 75% RH) | Tg (° C.) First heating [2] [°C] | Tg (° C.) Second heating [2] [°C] | Tg (° C.) [2] [°C] | Weight gain at 55% RH RH (%) ([1]; spray dried salts, 55% RH) |
| --- | --- | --- | --- | --- | --- | --- | --- | --- | --- | --- | --- |
| CC(C)c1nc(CN(C)C(=O)N[C@@H](CCN2CCOCC2)C(=O)N[C@H](CC[C@H](Cc2ccccc2)NC(=O)OCc2cncs2)Cc2ccccc2)cs1.O=C1NS(=O)(=O)c2ccccc21 [saccharinate] | 1.89 | No | 4.09 | Yes | no | yes | 4.0 | 37 | 56 | 36.4 | – |
| CC(C)c1nc(CN(C)C(=O)N[C@@H](CCN2CCOCC2)C(=O)N[C@H](CC[C@H](Cc2ccccc2)NC(=O)OCc2cncs2)Cc2ccccc2)cs1.O=C(O)CCC(=O)O [succinate] | 3.95 | Yes | 6.09 | Yes | – | – | – | 16 | 35 | – | – |
| tosylate | 3.11 | Partial | 6.5 | Yes | – | – | – | 32 | 46 | – | – |
| O=C(O)CCC(=O)C(=O)O [ketoglutarate] | 3.27 | Yes | 5.23 | Yes | – | – | – | 24 | 42 | – | – |
| CC(C)c1nc(CN(C)C(=O)N[C@@H](CCN2CCOCC2)C(=O)N[C@H](CC[C@H](Cc2ccccc2)NC(=O)OCc2cncs2)Cc2ccccc2)cs1.CCS(=O)(=O)O | 8.78 | Yes | 16.2 | Yes | – | – | – | −0.23 | 37 | – | – |
| CC(C)c1nc(CN(C)C(=O)N[C@@H](CCN2CCOCC2)C(=O)N[C@H](CC[C@H](Cc2ccccc2)NC(=O)OCc2cncs2)Cc2ccccc2)cs1.CC1(C)C2CCC1(CS(=O)(=O)O)C(=O)C2 [camphorosulfonate] | 2.99 | No | 5.9 | Yes | – | – | – | 66 | 66 | – | – |
| ascorbate | 3.23 | No | 7.56 | Yes | – | – | – | 42 | 60 | – | – |
| dichloroacetate | 3.36 | Yes | 7.3 | Yes | – | – | – | – | 34 | – | – |
| CC(C)c1nc(CN(C)C(=O)N[C@@H](CCN2CCOCC2)C(=O)N[C@H](CC[C@H](Cc2ccccc2)NC(=O)OCc2cncs2)Cc2ccccc2)cs1.Cl [hydrochloride] | 4.32 | Partial | 6.92 | Yes | partial | yes | 9.4 | 34 | 59 | 35 | 7.8 |
| CC(C)c1nc(CN(C)C(=O)N[C@@H](CCN2CCOCC2)C(=O)N[C@H](CC[C@H](Cc2ccccc2)NC(=O)OCc2cncs2)Cc2ccccc2)cs1.O=C(O)CNC(=O)c1ccccc1 [hippurate] | 3.37 | Partial | 5.61 | Yes | – | – | – | 31 | 44 | – | – |
| CC(C)c1nc(CN(C)C(=O)N[C@@H](CCN2CCOCC2)C(=O)N[C@H](CC[C@H](Cc2ccccc2)NC(=O)OCc2cncs2)Cc2ccccc2)cs1.O=P(O)(O)O [phosphate] | 4.52 | No | 7.9 | Partial | no | yes | 8.0 | 66 | 69 | 92 | 4.7 |
| CC(C)c1nc(CN(C)C(=O)N[C@@H](CCN2CCOCC2)C(=O)N[C@H](CC[C@H](Cc2ccccc2)NC(=O)OCc2cncs2)Cc2ccccc2)cs1.O=C(O)CC(=O)O [malonate] | 3.43 | Yes | 6.18 | Yes | – | – | – | 14 | 36 | – | – |
| CC(C)c1nc(CN(C)C(=O)N[C@@H](CCN2CCOCC2)C(=O)N[C@H](CC[C@H](Cc2ccccc2)NC(=O)OCc2cncs2)Cc2ccccc2)cs1.O=C(O)C(=O)O.O=C(O)C(=O)O [oxalate] | 4.38 | Partial | 9.36 | Yes | – | – | – | 34 | 46 | – | – |
| fumarate | 2.11 | No | 6.02 | Yes | no | yes | 6.0 | 37 | 51 | 31 | 3.2 |
| CC(C)c1nc(CN(C)C(=O)NC(CCN2CCOCC2)C(=O)NC(CCC(Cc2ccccc2)NC(=O)OCc2cncs2)Cc2ccccc2)cs1.O=C(O)c1ccc2ccccc2c1O (centres unmarked) [xinafoate] | 0.29 | No | 1.97 | No | no | no | 3.3 | 49 | 51 | 42 | 2.6 |
| benzoate | 1.99 | Yes | 3.63 | Yes | – | – | – | 14 | 23 | – | – |
| maleate | 4.41 | Yes | 6.67 | Yes | – | – | – | 24 | 37 | – | – |
| tartarate | 3.23 | No | 7.6 | Partial | no | yes | 6.3 | 44 | 66 | 67 | 5.8 |
| CC(C)c1nc(CN(C)C(=O)N[C@@H](CCN2CCOCC2)C(=O)N[C@H](CC[C@H](Cc2ccccc2)NC(=O)OCc2cncs2)Cc2ccccc2)cs1.CC(O)C(=O)O [lactate] | – | – | 5.76 | Yes | – | – | – | 2 | 17 | – | – |
| CC(C)c1nc(CN(C)C(=O)N[C@@H](CCN2CCOCC2)C(=O)N[C@H](CC[C@H](Cc2ccccc2)NC(=O)OCc2cncs2)Cc2ccccc2)cs1 [citrate] | 3.17 | No | 6.5 | Partial | – | – | – | 59 | 60 | – | – |
| CC(C)c1nc(CN(C)C(=O)N[C@@H](CCN2CCOCC2)C(=O)N[C@H](CC[C@H](Cc2ccccc2)NC(=O)OCc2cncs2)Cc2ccccc2)cs1.O=C(O)c1cc(O)ccc1O [gentisate] | 2.17 | No | 5.2 | No | no | partial | 5.6 | 62 | 62 | 61 | 3.1 |
| O=S(=O)(O)O [sulfate] | – | Partial | – | Yes | – | – | – | 71 | 71 | – | – |
